ChEMBL document CHEMBL5120852, “New Aβ(1-42) ligands from anti-amyloid antibodies: Design, synthesis, and structural interaction” (Eur J Med Chem, 2022)
Active and inactive are the calls of the source. The rule behind the calls is not given here. Where a SMILES comes first, the peptide text is derived from it. [ ]: non-standard residue; d: D form. Aib = CC(C)(N)C(=O)O

Columns and labels:
[1] = biological target: T1, Amyloid-beta precursor protein (Homo sapiens, UniProt P05067); test: Inhibition of 15N-labelled amyloid beta (1 to 42) (unknown origin) expressed in Escherichia coli BL21 (DE3)-pLysS cells fibrillization assessed as decrease in indicator of fibrillization (DoF) by AFM microscopic analysis
[2] = biological target: T1, Amyloid-beta precursor protein; test: Binding affinity to 5R to 22E residues of 15N-labelled amyloid beta (1 to 42) (unknown origin) expressed in Escherichia coli BL21 (DE3)-pLysS cells assessed as chemical shift perturbation by measuring dissociation constant by Chemical shift mapping NMR analysis
[3] = biological target: T1, Amyloid-beta precursor protein; test: Disaggregation of 15N-labelled amyloid beta (1 to 42) (unknown origin) expressed in Escherichia coli BL21 (DE3)-pLysS cells in pH 7.4 buffer assessed as absence of mature fibrils at 1:20 protein to compound molar ratio incubated for 192 hrs by AFM microscopic analysis
SH-SY5Y = test: Neuroprotective activity against amyloid beta (1 to 42)-induced cytotoxicity in human SH-SY5Y cells assessed as increase in cell viability at 0.000001 to 10 mM preincubated with compound for 48 hrs followed by stimulation with amyloid beta(1 to 42) and measured after 18 hrs by MTT assay; assay type: functional, cell-based; conditions: dose lower 1 nM, dose upper 10.0 mM
[4] = biological target: T1, Amyloid-beta precursor protein; test: Inhibition of 15N-labelled amyloid beta (1 to 42) (unknown origin) expressed in Escherichia coli BL21 (DE3)-pLysS cells fibrillization assessed as absence of observable number of protofibrils at 1:20 protein to compound molar ratio incubated for 192 hrs by AFM microscopic analysis
[5] = biological target: T1, Amyloid-beta precursor protein; test: Disaggregation of 15N-labelled amyloid beta (1 to 42) (unknown origin) expressed in Escherichia coli BL21 (DE3)-pLysS cells in pH 7.4 buffer assessed as absence of bundle of fibrils at 1:20 protein to compound molar ratio incubated for 192 hrs by AFM microscopic analysis
[6] = biological target: T1, Amyloid-beta precursor protein; test: Inhibition of 15N-labelled amyloid beta (1 to 42) (unknown origin) expressed in Escherichia coli BL21 (DE3)-pLysS cells fibrillization assessed as absence of mature fibrils at 1:20 protein to compound molar ratio incubated for 192 hrs by AFM microscopic analysis

T1 sequence (P05067 whole entry): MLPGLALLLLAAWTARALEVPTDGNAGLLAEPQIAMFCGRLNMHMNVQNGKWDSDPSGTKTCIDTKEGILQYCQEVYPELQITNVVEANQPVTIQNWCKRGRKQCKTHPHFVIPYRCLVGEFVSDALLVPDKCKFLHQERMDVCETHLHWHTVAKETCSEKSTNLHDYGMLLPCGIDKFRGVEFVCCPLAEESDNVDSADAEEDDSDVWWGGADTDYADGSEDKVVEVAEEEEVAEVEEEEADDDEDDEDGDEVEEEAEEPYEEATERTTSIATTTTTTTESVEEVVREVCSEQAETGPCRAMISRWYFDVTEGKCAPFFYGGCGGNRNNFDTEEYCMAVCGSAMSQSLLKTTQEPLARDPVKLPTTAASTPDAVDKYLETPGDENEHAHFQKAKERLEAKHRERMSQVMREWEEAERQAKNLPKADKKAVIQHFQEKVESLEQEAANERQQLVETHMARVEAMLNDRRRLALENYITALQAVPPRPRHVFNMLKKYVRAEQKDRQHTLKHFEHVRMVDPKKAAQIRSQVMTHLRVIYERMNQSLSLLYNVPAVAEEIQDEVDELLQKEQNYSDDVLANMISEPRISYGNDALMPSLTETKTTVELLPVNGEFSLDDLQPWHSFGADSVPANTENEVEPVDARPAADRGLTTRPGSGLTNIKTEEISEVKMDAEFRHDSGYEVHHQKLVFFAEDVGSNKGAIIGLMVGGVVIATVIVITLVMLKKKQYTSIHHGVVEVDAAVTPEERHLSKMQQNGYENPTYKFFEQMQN

CC(C)(NC(=O)[C@@H](N)Cc1c[nH]c2ccccc12)C(=O)N[C@@H](Cc1c[nH]cn1)C(=O)O (H-Trp-[Aib]-His-OH)
Activity [1]: 0.03
Kd [2]: 5.74 mM
Activity [3]: Active
Activity (SH-SY5Y): Active
inhibition [4]: Active
Activity [5]: Active
inhibition [6]: Active

H-SYSTPGK-OH
Activity [1]: 0.06
Kd [2]: 0.65 mM
Activity [3]: Active
Activity (SH-SY5Y): Active
inhibition [4]: Active
Activity [5]: Active
inhibition [6]: Active
